# Legend:
# [1] = Rate of release of chlorhexidine/fatty acid salts from coated polyurethane tubes into DI water; assay type: physicochemical; details: for Cumulative release of the chlorhexidine/fatty acid salts from the coated polyurethane tubes: 1 cm coated tube in DI water, 37° C.
# Experimental: A solution of each respective chlorhexidine/fatty acid salt was prepared and used to infuse a sample of elastomeric material. To perform the test, individual samples, 8 cm pieces of polyurethane tube containing a colorant, were surface dip coated in respective solutions of the chlorhexidine/fatty acid salts. The solutions were prepared as follows: 8.6 g of Tecoflex (Noveon, Cleveland, Ohio) was dissolved in 174 g of Tetrahydrofuran and methanol. 5.88 g of chlorhexidine acetate, chlorhexidine laurate, chlorhexidine myristate, chlorhexidine palmitate and chlorhexidine stearate were individually dissolved into the polymer-solvent mixture. The samples were immersed into the solvent-polymer-salt mixture and then dried at room temperature, evaporating the solvent. A polymeric coating was produced on the surface of the tubes. The amounts of chlorhexidine/fatty acid salt adhered per cm of the tube was measured (Table 2) by exhaustively extracting the salt and measuring UV absorbance at 253 nm relative to controls: For each of the samples, the rate of release of chlorhexidine/fatty acid salts into an aqueous solution was determined. To perform the rate of release test, 1 cm from each of the coated polyurethane tubes, were submerged in DeIonized (DI) water and incubated at 37° C. for a period of 28 days to determine the rate of release of the salts from the respective 1 cm samples of coated polyurethane tubing. The water was collected and replaced with fresh water after approximately 2 hours. The water was again collected and replaced with fresh water after the first day and every seven days thereafter. The amount of chlorhexidine/fatty acid salt in the collected water was measured with an Agilent 8453 UV-Vis Diode Array Detector with a manual setup using a cuvette w/path length of 1 cm. Chlorhexidine absorbance was read at 253 nm and concentration was calculated via a calibration curve developed using standards of 1, 5, 10, 20, 30, 35, and 40 μg/mL chlorhexidine acetate in DI Water. The percentage of chlorhexidine/fatty acid salt released from the sample into an aqueous media (percent release) was calculated according to the following equation: Percent release=(cumulative release at that time period/initial content)*100.
# [2] = tested on: Pseudomonas aeruginosa ATCC 27853; experiment: Basic broth adherence assay on coated polyurethane tubes; assay type: cell-based
# Experimental: The antimicrobial effectiveness of the coated samples was subjected to different durations of DI water extraction by basic broth adherence assay. For each chlorhexidine/fatty acid salt tested, 3 samples of coated tubing were prepared and assayed. To prepare the inoculum, a culture of Pseudomonas aeruginosa ATCC 27853 was used to challenge the coated polyurethane tubes and controls. The negative control used was a length of uncoated polyurethane tube. The challenge microorganism suspension was prepared as follows: approximately three colonies were removed from a secondary working culture plated on Trypticase Soy Agar (TSA) (BD-Falcon) with 5% sheep's blood and added to 10 ml of Trypticase Soy Broth (TSB). The vial was vortexed for approximately 30 seconds and incubated for 4 hours at 37° C. at 100 rpm. Following incubation, the vial was removed and vortexed. The optical density of the organism suspension was read. The inoculum was then diluted in TSB to a concentration of 5×10^4 colony forming units per milliliter (CFU/mL). This concentration was confirmed by the Miles and Misra drop count method.
# The basic broth adherence assay was performed in a 96 well micro titer plate. To each well of the micro titer plate containing either a test article or a control, 900 μl of TSB was added. To this, 100 μl of the adjusted inoculum was added (Note: Due to the 1/10 dilution per well, the starting inoculum concentration of each organism was […] for Pseudomonas aeruginosa). The micro titer plates were then sealed via parafilm® around the edges and wrapped in foil to avoid evaporation of liquid and light contact with the samples. The plates were then placed inside a shaker incubator set at 37° C. and 100 rpm for 24 hours. Incubation at 37° C. then continued until the elapse of 7 days, 14 days, and 21 days, respectively, for each of the 3 samples prepared for each chlorhexidine/fatty acid salt.
# At the completion of the respective incubation periods, the samples were rinsed, sonicated, the sonicate was plated and adherence was evaluated. More particularly, following incubation, all samples and controls were dip-rinsed twice in phosphate buffered saline (PBS) to remove the surrounding media. After rinsing, test articles were sonicated in micro titer plate wells containing 1 mL of Dey-Engley (DE) neutralizing broth (Difco). The sonication liquid was then serially diluted, and plated onto the surface of DE neutralizing agar. Plates were incubated at 37° C. for 24 to 48 hours and colonies were counted. Recovery counts were recorded as CFU/mL.
# [3] = 90% THF+10% Methanol
# Text: Chlorhexidine diacetate, Chlorhexidine dodecanoate and chlorhexidine palmitate were loaded into silicone tubing by first dissolving the chlorhexidine salt in a 90% THF+10% Methanol solution. The tubing was then immersed in this solution for one day where it swelled and chlorhexidine salt diffused into the polymer matrix. The impregnated piece of tubing was removed and then vacuum dried to remove all volatile solvent.
compound,measurement,setting,value
"N=C(NCCCCCCNC(=N)NC(=N)Nc1ccc(Cl)cc1)NC(=N)Nc1ccc(Cl)cc1.Nc1ccc(P(=O)(O)O)cc1.Nc1ccc(P(=O)(O)O)cc1 [Chlorhexidine Palmitate, chlorhexidine dipalmitate]",Cumulative release of the chlorhexidine/fatty acid salts from the coated polyurethane tubes,[1]; Day 1,28 g
same,Cumulative release of the chlorhexidine/fatty acid salts from the coated polyurethane tubes,[1]; Day 7,79 g
same,Cumulative release of the chlorhexidine/fatty acid salts from the coated polyurethane tubes,[1]; Day 14,112 g
same,Cumulative release of the chlorhexidine/fatty acid salts from the coated polyurethane tubes,[1]; Day 21,132 g
same,Cumulative release of the chlorhexidine/fatty acid salts from the coated polyurethane tubes,[1]; Day 28,140 g
same,Release from the coated sample over the test (in words),"[1]; FIG. 1, 28 days in DI water",continually released at an appreciable rate throughout the duration of the test
same,Amount released from the coated sample over the 7 day period,[1]; from 21 to 28 days,8 µg
same,Log10 reduction of adhered Pseudomonas aeruginosa onto the surface of coated polyurethane tubes,[2]; 7 days,7
same,Log10 reduction of adhered Pseudomonas aeruginosa onto the surface of coated polyurethane tubes,[2]; 14 days,7
same,Log10 reduction of adhered Pseudomonas aeruginosa onto the surface of coated polyurethane tubes,[2]; 21 days,7
same,Solubility in the swelling impregnation solvent mixture (in words),[3],soluble at higher concentrations

# Reference: US20100069854A1, “Elastomeric Devices Containing Chlorhexidine/Fatty Acid Salts Made From Fatty Acids of 12 to 18 Carbons” (priority 2008, published 2010)
